Data taken from the supplement of paper PMC10307832.

Experiments:
Test in all cases: relative viability (nuclei count vs DMSO), 5 days (fraction); higher = more cells survive
[1] = tested on: NCI-H1437
How it was run: (§1)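 Dosing by pin tool came one day after lung cancer cell lines were seeded in 1536-well plates, using either one drug or a fixed anchor-drug dose plus five library-drug doses (not always all listed) in √10 steps. After 5 days, nuclei were counted on 4× images. Relative viability is treated-well nuclei count divided by vehicle-well nuclei count, and values are medians of duplicate plates.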

[2] = tested on: HCC-827
How it was run: as §1

[3] = tested on: NCI-H647
How it was run: as §1

[4] = tested on: NCI-H1355
How it was run: as §1

[5] = tested on: SK-LU-1
How it was run: as §1

[6] = tested on: NCI-H2405
How it was run: as §1

[7] = tested on: NCI-H2342
How it was run: as §1

[8] = tested on: NCI-H661
How it was run: as §1

[9] = tested on: EKVX
How it was run: as §1

[10] = tested on: NCI-H1734
How it was run: as §1

[11] = tested on: NCI-H2170
How it was run: as §1

[12] = tested on: NCI-H596
How it was run: as §1

NC(=O)Nc1cc(-c2cccc(F)c2)sc1C(=O)N[C@H]1CCCNC1 [AZD7762] + COc1cccc2cc(-c3nc([C@H]4CC[C@H](C(=O)O)CC4)n4ncnc(N)c34)[nH]c12 [OSI-027] (partner 0.5 µM)
relative viability ([1]; first compound 0.01 µM): 0.888 | relative viability ([1]; first compound 0.03162 µM): 0.833 | relative viability ([1]; first compound 0.1 µM): 0.974 | relative viability ([1]; first compound 0.3162 µM): 0.87 | relative viability ([1]; first compound 1 µM): 0.695 | relative viability ([2]; first compound 0.01 µM): 0.787 | relative viability ([2]; first compound 0.03162 µM): 0.802 | relative viability ([2]; first compound 0.1 µM): 0.863 | relative viability ([2]; first compound 0.3162 µM): 0.875 | relative viability ([2]; first compound 1 µM): 0.537 | relative viability ([3]; first compound 0.01 µM): 0.656 | relative viability ([3]; first compound 0.03162 µM): 0.55 | relative viability ([3]; first compound 0.1 µM): 0.714 | relative viability ([3]; first compound 0.3162 µM): 0.6 | relative viability ([3]; first compound 1 µM): 0.172 | relative viability ([4]; first compound 0.01 µM): 0.389 | relative viability ([4]; first compound 0.03162 µM): 0.489 | relative viability ([4]; first compound 0.1 µM): 0.515 | relative viability ([4]; first compound 0.3162 µM): 0.443 | relative viability ([4]; first compound 1 µM): 0.418 | relative viability ([5]; first compound 0.01 µM): 0.35 | relative viability ([5]; first compound 0.03162 µM): 0.384 | relative viability ([5]; first compound 0.1 µM): 0.203 | relative viability ([5]; first compound 0.3162 µM): 0.136 | relative viability ([5]; first compound 1 µM): 0.157 | relative viability ([6]; first compound 0.01 µM): 0.608 | relative viability ([6]; first compound 0.03162 µM): 0.676 | relative viability ([6]; first compound 0.1 µM): 0.623 | relative viability ([6]; first compound 0.3162 µM): 0.664 | relative viability ([6]; first compound 1 µM): 0.455 | relative viability ([7]; first compound 0.01 µM): 0.612 | relative viability ([7]; first compound 0.03162 µM): 0.714 | relative viability ([7]; first compound 0.1 µM): 0.611 | relative viability ([7]; first compound 0.3162 µM): 0.586 | relative viability ([7]; first compound 1 µM): 0.588 | relative viability ([8]; first compound 0.01 µM): 0.731 | relative viability ([8]; first compound 0.03162 µM): 0.717 | relative viability ([8]; first compound 0.1 µM): 0.616 | relative viability ([8]; first compound 0.3162 µM): 0.559 | relative viability ([8]; first compound 1 µM): 0.319 | relative viability ([9]; first compound 0.01 µM): 0.726 | relative viability ([9]; first compound 0.03162 µM): 0.75 | relative viability ([9]; first compound 0.1 µM): 0.653 | relative viability ([9]; first compound 0.3162 µM): 0.604 | relative viability ([9]; first compound 1 µM): 0.628 | relative viability ([10]; first compound 0.01 µM): 0.638 | relative viability ([10]; first compound 0.03162 µM): 0.704 | relative viability ([10]; first compound 0.1 µM): 0.642 | relative viability ([10]; first compound 0.3162 µM): 0.374 | relative viability ([10]; first compound 1 µM): 0.238 | relative viability ([11]; first compound 0.01 µM): 0.637 | relative viability ([11]; first compound 0.03162 µM): 0.734 | relative viability ([11]; first compound 0.1 µM): 0.807 | relative viability ([11]; first compound 0.3162 µM): 0.8 | relative viability ([11]; first compound 1 µM): 0.707 | relative viability ([12]; first compound 0.01 µM): 0.702 | relative viability ([12]; first compound 0.03162 µM): 0.711
